Source: patent US9173864B2, “Treatment and/or prevention of inner ear conditions by modulation of a metabotropic glutamate receptor” (House Ear Institute, priority 2008, dated 2015)

Tested on: patients with symptoms of presbycusis
Experiment: Administration of FTIDC to patients with presbycusis (Example 5)
Type: in vivo, human
Details: person; for hearing threshold, left ear / hearing threshold, right ear: after 14 days
Procedure: A person presents with symptoms of presbycusis, including moderate loss of higher frequency (above 2000 Hz) hearing (50 decibel threshold) in both ears. The person is administered two drops per ear twice daily of a topical otic formulation comprising 10 ug/ml of FTIDC in a phosphate-buffered saline and further comprising 0.25% the carboxyvinyl water swellable gelling agent, Carbopol 934P; i.e., about […] of FTIDC per ear per dosing. After 14 days, the patient is tested by an audiologist. The threshold is lowered to 35 decibels right ear and 40 decibels left ear.
A person presents with symptoms of presbycusis, including loss of moderately high frequency (above 1000 Hz) hearing (40 decibel threshold right ear and 35 decibel threshold left ear). The person is administered an oral formulation 4 times per day comprising 2 ug per dose of FTIDC. The extended release capsule comprises a matrix of 10% by weight hydroxypropyl methylcellulose (e.g., Methocel®; Dow Chemical Company, U.S.A), and 50% by weight of a cornstarch filler. After 14 days, the threshold is lowered to 35 decibels right ear and 25 decibels left ear.
A person presents with symptoms of presbycusis, including loss of hearing in the 500 to above 2000 Hz range. The person is implanted with an Alset® osmotic pump adapted for cochlear delivery; see e.g., Richardson, R. T., Noushi, F., O'Leary, S. Inner ear therapy for neural preservation. AUDIOLOGY AND NEURO-OTOLOGY 2006; 11(6): 343-356. The pump is supplied with an aqueous sterile solution comprising FTIDC. The pump delivers a dose of 10 ug/hour of the modulator.

[1] = higher frequency (above 2000 Hz) loss, 50 decibel threshold before, topical otic drops 10 ug/ml twice daily

Cc1c(C2=CCN(C(=O)N(C)C(C)C)CC2)nnn1-c1cccnc1F [FTIDC, 4-[1-(2-fluoropyridin-3-yl)-5-methyl-1H-1,2,3-triazol-4-yl]-N-isopropyl-N-methyl-3,6-dihydropyridine-1(2H)-carboxamide]
hearing threshold, left ear (above 1000 Hz loss, 35 decibel threshold before, oral extended release capsule 2 ug per dose 4 times per day): 25 decibels
hearing threshold, right ear (above 1000 Hz loss, 40 decibel threshold before, oral extended release capsule 2 ug per dose 4 times per day): 35 decibels
hearing threshold, left ear [1]: 40 decibels
hearing threshold, right ear [1]: 35 decibels
hearing (loss in 500 to above 2000 Hz range, osmotic pump cochlear delivery 10 ug/hour, after 10 days): hearing is improved in both ears
